The source of these data is patent publication US6946558B2 (CJ Corp., priority 2001, dated 2005).

One assay concerns the target T1, cyclooxygenase-1 (Homo sapiens, UniProt P23219).
T1 construct: endogenous in cells; host or cells: U-937 (Korean cell line bank)
As to the kind of experiment: Cyclooxygenase-1 inhibition in U-937 cells (PGE2 quantitation after arachidonic acid). In kind it is cell-based. The settings on record: for Inhibitory effects of cyclooxygenase (COX): COX-1 (U-937): U-937 cells; for inhibition effect against cyclooxygenase-1 compared with standard substance SC-58635: in words, compared with SC-58635. How it is done:
(§1) In order to investigate pharmacologically the selective inhibition activity against cyclooxygenase-2 enzyme, the inhibitive effects against cyclooxygenase-1 and cyclooxygenase-2 were measured by two methods as follows.
Then, the pellet was diluted with 1×HBSS (Hank's balanced salt solutin) at the concentration of 1×10^6 cells/ml, and 1 ml of them was transferred into each of 12-well plates, and then dissolved with DMSO. 5 μl of the diluted sample solution and 5 μl of DMSO vehicle were added therein and mixed, and the mixture was cultured at 37° C. in CO2 incubator for 15 minutes. Arachidonic acid as a substrate was dissolved in ethanol to prepare a stock solution with a concentration of 10 mM, followed by diluting with 1×HBSS to prepare the solution of 1 mM. 10 μl of 1 mM Arachidonic acid solution was added to each of the treated wells and the mixture was cultured at 37° C. in CO2 incubator for 30 minutes. The cell solution of each well was collected in the centrifuge tube and centrifuged at 4° C., for 5 minutes at 10,000 rpm. As PGE2 existed in the supernatant separated from collected cell, the concentration of PGE2 was quantitated by using monoclonal kit from Cayman Chemicals, and the concentration of samples and vehicle were compared to estimate the inhibition ratio (%) of each compound against cyclooxygenase-1. Ultimately, the inhibition effect against the cyclooxygenase-1 enzyme was obtained from the result.

A further assay has as its target T2, cyclooxygenase-2 (Mus musculus, UniProt Q05769).
T2 construct: endogenous in cells; host or cells: Raw 264.7 (Korean cell line bank), induced with interferon γ and LPS
T2 sequence (Q05769 18-604): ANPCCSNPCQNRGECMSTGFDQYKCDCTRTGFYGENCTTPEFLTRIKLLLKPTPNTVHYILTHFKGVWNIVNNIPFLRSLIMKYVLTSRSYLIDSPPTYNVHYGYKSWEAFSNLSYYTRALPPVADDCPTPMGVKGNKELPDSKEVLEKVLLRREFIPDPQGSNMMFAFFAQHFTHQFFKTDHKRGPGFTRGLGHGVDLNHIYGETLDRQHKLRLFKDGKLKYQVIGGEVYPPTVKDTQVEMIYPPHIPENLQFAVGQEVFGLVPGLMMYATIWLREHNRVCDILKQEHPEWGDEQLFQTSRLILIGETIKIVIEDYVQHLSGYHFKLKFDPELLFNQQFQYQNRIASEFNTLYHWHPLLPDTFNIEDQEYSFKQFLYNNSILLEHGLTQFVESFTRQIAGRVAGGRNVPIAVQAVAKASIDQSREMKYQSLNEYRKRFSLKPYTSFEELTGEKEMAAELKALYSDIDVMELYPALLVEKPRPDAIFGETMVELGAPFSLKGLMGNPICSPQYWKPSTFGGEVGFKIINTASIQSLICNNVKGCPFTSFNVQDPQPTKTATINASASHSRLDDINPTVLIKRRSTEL
In words: Cyclooxygenase-2 inhibition in Raw 264.7 cells (interferon γ/LPS induced, PGE2 EIA). The format is cell-based. The note with it: for Inhibitory effects of cyclooxygenase (COX): COX-2 (Raw 264.7): Raw 264.7 cells; for selectivity of cyclooxygenase-2 compared with standard substance: COX-2 versus COX-1, compared with SC-58635. How it is done:
as §1
And then, each samples were replaced with new media and cultured for 30 minutes. In addition, the samples were treated with 100 units/ml of interferon γ and 100 ng/ml of lipopolysaccharide (LPS), and cultured for 18 hours. Then, the media was transferred to other tubes and the PGE 2 was quantitated by using EIA kit from Cayman Chemicals.

T1 sequence (P23219 24-599): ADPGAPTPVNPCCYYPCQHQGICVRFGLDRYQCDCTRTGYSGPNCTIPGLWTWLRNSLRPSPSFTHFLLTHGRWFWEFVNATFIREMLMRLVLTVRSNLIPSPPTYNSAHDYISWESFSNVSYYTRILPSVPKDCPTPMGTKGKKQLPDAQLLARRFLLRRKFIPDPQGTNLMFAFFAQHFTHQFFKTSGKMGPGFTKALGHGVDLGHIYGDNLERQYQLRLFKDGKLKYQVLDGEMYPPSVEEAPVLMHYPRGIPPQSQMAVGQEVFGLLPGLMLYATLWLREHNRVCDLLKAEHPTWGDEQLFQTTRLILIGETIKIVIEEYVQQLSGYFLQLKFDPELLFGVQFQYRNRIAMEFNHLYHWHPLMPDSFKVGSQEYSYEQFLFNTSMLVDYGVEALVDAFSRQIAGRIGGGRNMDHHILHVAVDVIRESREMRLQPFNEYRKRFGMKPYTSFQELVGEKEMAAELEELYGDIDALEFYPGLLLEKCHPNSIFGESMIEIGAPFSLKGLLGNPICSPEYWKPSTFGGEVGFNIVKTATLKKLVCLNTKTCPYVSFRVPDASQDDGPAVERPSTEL

In the case of `CS(=O)(=O)c1ccc(-c2ncccc2OC2CCCCC2)cn1` [Example 3, 3-cyclohexyloxy-6′-methylsulfonyl-2,3′-bipyridinyl], the “Inhibitory effects of cyclooxygenase (COX): COX-1 (U-937)” value (“Inhibitory effects … (U-937)” for short) at cyclooxygenase-1 (1 μM) was 11.2 % inhibition; on cyclooxygenase-1 (3 μM) it was 12.5 % inhibition; at cyclooxygenase-1 (10 μM), 14.0 % inhibition. Moreover, the “Inhibitory effects of cyclooxygenase (COX): COX-2 (Raw 264.7)” value (“Inhibitory effects … (Raw 264.7)” for short) at cyclooxygenase-2 (30 nM) is 23.5 % inhibition; on cyclooxygenase-2 (100 nM), 30.2 % inhibition; at cyclooxygenase-2 (300 nM) it was 42.2 % inhibition.
For the compound `C[C@@H](CO)COc1cccnc1-c1ccc(S(C)(=O)=O)nc1` [Example 6, (S)-3-(6′-methylsulfonyl-2,3′-bipyridine-3-yloxy)-2-methyl-1-propanol], the “Inhibitory effects … (U-937)” value on cyclooxygenase-1 (1 μM) was found to be 14.3 % inhibition; on cyclooxygenase-1 (3 μM), 17.2 % inhibition; on cyclooxygenase-1 (10 μM), 24.5 % inhibition. Further, the “inhibition effect against cyclooxygenase-1 compared with standard substance SC-58635” value on cyclooxygenase-1 was “much lower level than a comparative substance”. Moreover, the “Inhibitory effects … (Raw 264.7)” value was 9.3 % inhibition on cyclooxygenase-2 (30 nM), 12.0 % inhibition at cyclooxygenase-2 (100 nM) and 21.0 % inhibition at cyclooxygenase-2 (300 nM). Also, at cyclooxygenase-2 (in words), the “selectivity of cyclooxygenase-2 compared with standard substance” value (“selectivity” for short) is given as “hardly different”.
Turning to `CC(C)Oc1cccnc1-c1ccc(S(C)(=O)=O)nc1` [Example 1, 3-isopropyloxy-6′-methylsulfonyl-2,3′-bipyridinyl], the entries for the “Inhibitory effects … (U-937)” value at cyclooxygenase-1 (1 μM), at cyclooxygenase-1 (3 μM) and on cyclooxygenase-1 (10 μM) were 0.2 % inhibition, 7.5 % inhibition and 11.0 % inhibition, respectively. Also, on cyclooxygenase-1, the “inhibition effect against cyclooxygenase-1 compared with standard substance SC-58635” value is reported as “much lower level than a comparative substance”. Besides, the “Inhibitory effects … (Raw 264.7)” value at cyclooxygenase-2 (30 nM) stood at 10.2 % inhibition; at cyclooxygenase-2 (100 nM), 14.2 % inhibition; at cyclooxygenase-2 (300 nM), 15.2 % inhibition. The “selectivity” value on cyclooxygenase-2 (in words) was “hardly different”.
In the case of `CC(C)=CCOc1cccnc1-c1ccc(S(C)(=O)=O)nc1` [Example 4, 6′-methylsulfonyl-3-(3-methyl-2-butenyloxy)-2,3′-bipyridinyl], the “Inhibitory effects … (U-937)” value on cyclooxygenase-1 (1 μM) is given as 12.2 % inhibition; on cyclooxygenase-1 (3 μM), 15.6 % inhibition; on cyclooxygenase-1 (10 μM), 17.0 % inhibition. The results for the “Inhibitory effects … (Raw 264.7)” value at cyclooxygenase-2 (30 nM), on cyclooxygenase-2 (100 nM) and on cyclooxygenase-2 (300 nM) were 15.8 % inhibition, 28.5 % inhibition and 40.8 % inhibition, respectively.
For `CS(=O)(=O)c1ccc(-c2ncccc2OC2CCCC2)cn1` [Example 2, 3-cyclopentyloxy-6′-methylsulfonyl-2,3′-bipyridinyl], the “Inhibitory effects … (U-937)” value worked out at 12.7 % inhibition on cyclooxygenase-1 (1 μM), 14.3 % inhibition on cyclooxygenase-1 (3 μM) and 21.0 % inhibition at cyclooxygenase-1 (10 μM). Moreover, the “inhibition effect against cyclooxygenase-1 compared with standard substance SC-58635” value on cyclooxygenase-1 was “much lower level than standard substance”. In addition, the “Inhibitory effects … (Raw 264.7)” value at cyclooxygenase-2 (30 nM) is 40.3 % inhibition; on cyclooxygenase-2 (100 nM), 53.2 % inhibition; at cyclooxygenase-2 (300 nM) it was 63.5 % inhibition. Further, on cyclooxygenase-2 (in words), the “selectivity” value is listed as “better than any other standard substances”. Also, the “inhibition effect against cyclooxygenase-2 compared with standard substance SC-58635” value against cyclooxygenase-2 (in words, low concentration, same condition as SC-58635) is on record as “more excellent in low concentration than standard substance”.
`C[C@H](CO)COc1cccnc1-c1ccc(S(C)(=O)=O)nc1` [Example 5, (R)-3-(6′-methylsulfonyl-2,3′-bipyridine-3-yloxy)-2-methyl-1-propanol]: the “Inhibitory effects … (U-937)” value is 13.5 % inhibition at cyclooxygenase-1 (1 μM), 16.2 % inhibition at cyclooxygenase-1 (3 μM) and 18.9 % inhibition at cyclooxygenase-1 (10 μM). Also, the “inhibition effect against cyclooxygenase-1 compared with standard substance SC-58635” value against cyclooxygenase-1 is “much lower level than a comparative substance”. Also, the “Inhibitory effects … (Raw 264.7)” value amounted to 10.3 % inhibition at cyclooxygenase-2 (30 nM), 11.01 % inhibition at cyclooxygenase-2 (100 nM) and 20.1 % inhibition at cyclooxygenase-2 (300 nM). Moreover, the “selectivity” value at cyclooxygenase-2 (in words) is “hardly different”.
